PubChem BioAssay AID2020 (NMMLSC, 2009)
pEC50, pKi: −log10 of the molar value. Calls of active or inactive are those of the source.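 How the source made its calls: active means EC50 at or below 30 µM together with a response span of at least a set limit; inactive means the rest.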

Target: Cell division control protein 42 homolog (Homo sapiens) (UniProt P60953)
Assay: activated Cdc42 mutant GTP binding inhibitors, SAR follow-up, biochemical, pyrazoline analogs, multiplex bead flow cytometry, Ki (AID 2020)
Details: bead-based flow cytometry, Bodipy-FL-GTP binding; for pKi: measured here: Ki calculated from EC50

Chain of Cell division control protein 42 homolog (Homo sapiens) (P60953 whole entry, looked up, change not shown): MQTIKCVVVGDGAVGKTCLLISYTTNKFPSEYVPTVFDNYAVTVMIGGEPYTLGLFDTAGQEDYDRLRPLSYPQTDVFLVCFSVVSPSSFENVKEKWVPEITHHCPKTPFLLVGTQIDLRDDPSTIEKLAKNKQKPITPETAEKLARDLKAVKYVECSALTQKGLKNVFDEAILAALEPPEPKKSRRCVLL

EC50	pEC50	pKi	Compound
> 30 µM (inactive)	–	–	COc1ccc(C2CC(c3ccccc3)=NN2c2ccc(C(=O)O)cc2)cc1 (stereo not drawn)
> 30 µM (inactive)	–	–	Clc1ccc(N2N=C(c3ccccc3)CC2c2ccccc2)cc1 (stereo not drawn)
> 30 µM (inactive)	–	–	NS(=O)(=O)c1ccc(N2N=C(c3ccccc3)CC2c2ccccc2Br)cc1 (stereo not drawn)
> 30 µM (inactive)	–	–	Cc1cccc(N2N=C(c3ccccc3)CC2c2ccccc2)c1 (stereo not drawn)
> 30 µM (inactive)	–	–	O=S(=O)(O)c1ccc(N2N=C(c3ccccc3)CC2c2ccccc2)cc1 (stereo not drawn)
–	5.15	5.96	NS(=O)(=O)c1ccc(N2N=C(c3ccc(Cl)cc3)CC2c2ccccc2)cc1 (stereo not drawn)
> 30 µM (inactive)	–	–	Fc1ccc(C2=NN(c3cccc(Br)c3)C(c3ccccc3)C2)cc1 (stereo not drawn)
–	5.28	6.09	Cc1cccc(C2CC(c3ccccc3)=NN2c2ccc(S(N)(=O)=O)cc2)c1 (stereo not drawn)
inactive	–	6.41	COc1ccc(C2=NN(c3ccc(S(N)(=O)=O)cc3)C(c3ccc(OC)cc3)C2)cc1 (stereo not drawn)
> 30 µM (inactive)	–	–	COc1ccc(C2CC(c3cccc(C(F)(F)F)c3)=NN2c2ccc(S(N)(=O)=O)cc2)cc1 (stereo not drawn)
–	5.26	6.07	COc1ccc(C2CC(c3ccc(F)cc3)=NN2c2ccc(S(N)(=O)=O)cc2)cc1 (stereo not drawn)
> 30 µM (inactive)	–	–	COc1ccc(C2CC(c3ccccc3C(F)(F)F)=NN2c2ccc(S(N)(=O)=O)cc2)cc1 (stereo not drawn)
> 30 µM (inactive)	–	–	COc1ccc(C2CC(c3ccccc3)=NN2c2ccc(Cl)c(C(=O)O)c2)cc1 (stereo not drawn)
–	4.87	5.68	Cc1ccccc1C1CC(c2ccccc2)=NN1c1ccc(S(N)(=O)=O)cc1 (stereo not drawn)
> 30 µM (inactive)	–	–	COc1ccc(C2CC(C3CCCCC3)=NN2c2ccc(S(N)(=O)=O)cc2)cc1 (stereo not drawn)
> 30 µM (inactive)	–	–	COc1ccc(C2CC(c3ccncc3)=NN2c2ccc(S(N)(=O)=O)cc2)cc1 (stereo not drawn)
> 30 µM (inactive)	–	–	Clc1cccc(N2N=C(c3ccccc3)CC2c2ccccc2)c1 (stereo not drawn)
inactive	–	6.42	COc1ccc(-c2cc(-c3ccccc3)nn2-c2ccc(S(N)(=O)=O)cc2)cc1
–	5.43	6.24	NS(=O)(=O)c1ccc(N2N=C(c3ccccc3)CC2c2cccc(Br)c2)cc1 (stereo not drawn)

EC50	pEC50	pKi	Compound
> 30 µM (inactive)	–	–	COc1ccc(C2=NN(c3ccc(Cl)cc3)C(c3ccccc3F)C2)cc1 (stereo not drawn)
–	5.77	6.59	NS(=O)(=O)c1ccc(N2N=C(c3ccccc3)CC2c2ccc(Br)cc2)cc1 (stereo not drawn)
> 30 µM (inactive)	–	–	COc1ccc(C2CC(c3cccnc3)=NN2c2ccc(S(N)(=O)=O)cc2)cc1 (stereo not drawn)
> 30 µM (inactive)	–	–	COc1ccc(C2=NN(c3ccccc3)C(c3ccc(OC)c(OC)c3C(=O)O)C2)cc1 (stereo not drawn)
inactive	–	6.36	COc1ccc(C2CC(c3ccc(Br)cc3)=NN2c2ccc(S(N)(=O)=O)cc2)cc1 (stereo not drawn)
inactive	–	5.33	CN(C)c1ccc(C2CC(c3ccc(Cl)cc3)=NN2c2ccccc2)cc1 (stereo not drawn)
–	5.26	6.07	COc1ccc(C2CC(c3ccccc3OC)=NN2c2ccc(S(N)(=O)=O)cc2)cc1 (stereo not drawn)
–	5.13	5.94	COc1ccc(C2CC(c3ccsc3)=NN2c2ccc(S(N)(=O)=O)cc2)cc1 (stereo not drawn)
–	5.68	6.49	COc1ccc(C2CC(c3cccc(Cl)c3)=NN2c2ccc(S(N)(=O)=O)cc2)cc1 (stereo not drawn)
> 30 µM (inactive)	–	–	O=S(=O)(c1ccc(N2N=C(c3ccc(Br)cc3)CC2c2ccccc2)cc1)C(F)F (stereo not drawn)
–	5.45	6.26	COc1ccc(C2CC(c3ccccc3F)=NN2c2ccc(S(N)(=O)=O)cc2)cc1 (stereo not drawn)
inactive	–	5.31	COc1ccc(C2=NN(c3cccc(F)c3)C(c3ccc(Cl)cc3)C2)cc1 (stereo not drawn)
inactive	–	7.05	COc1ccccc1C1CC(c2ccccc2)=NN1c1ccccc1 (stereo not drawn)
> 30 µM (inactive)	–	–	COc1ccc(C2CC(c3ccc(N(C)C)cc3)=NN2c2ccc(S(N)(=O)=O)cc2)cc1 (stereo not drawn)
inactive	–	5.46	COc1ccc(C2=NN(c3ccccc3)C(c3ccccc3C(F)(F)F)C2)cc1 (stereo not drawn)
inactive	–	6.43	COc1ccc(C2CC(c3ccc(C)cc3)=NN2c2ccc(S(N)(=O)=O)cc2)cc1 (stereo not drawn)
inactive	–	8.00	COc1ccc(C2CC(c3ccccc3)=NN2c2cccc(S(N)(=O)=O)c2)cc1 (stereo not drawn)
> 30 µM (inactive)	–	–	COc1ccccc1N1N=C(c2ccccc2)CC1c1ccccc1 (stereo not drawn)
–	5.44	6.25	NS(=O)(=O)c1ccc(N2N=C(c3ccccc3)CC2c2cccc(Cl)c2)cc1 (stereo not drawn)

EC50	pEC50	pKi	Compound
> 30 µM (inactive)	–	–	FC(F)(F)c1ccccc1C1CC(c2ccc(Br)cc2)=NN1c1ccccc1 (stereo not drawn)
–	5.46	6.28	COc1ccc(C2CC(c3cccc(F)c3)=NN2c2ccc(S(N)(=O)=O)cc2)cc1 (stereo not drawn)
–	5.39	6.20	COc1ccc(C2CC(c3ccc(Cl)cc3)=NN2c2ccc(S(N)(=O)=O)cc2)cc1 (stereo not drawn)
> 30 µM (inactive)	–	–	O=C(O)c1ccc(N2N=C(c3ccccc3)CC2c2ccccc2)cc1 (stereo not drawn)
> 30 µM (inactive)	–	–	COc1ccc(C2CC(c3ccc(Cl)cc3)=NN2c2ccccc2)cc1OC (stereo not drawn)
> 30 µM (inactive)	–	–	COc1ccc(C2=NN(c3cccc(F)c3)C(c3ccc(OC)cc3)C2)cc1 (stereo not drawn)
–	5.40	6.21	COc1ccc(C2CC(c3cccs3)=NN2c2ccc(S(N)(=O)=O)cc2)cc1 (stereo not drawn)
> 30 µM (inactive)	–	–	COc1ccc(C2CC(c3ccc(F)cc3)=NN2c2ccccc2)cc1OC (stereo not drawn)
> 30 µM (inactive)	–	–	O=[N+]([O-])c1cccc(C2CC(c3ccc(F)cc3)=NN2c2ccccc2)c1 (stereo not drawn)
–	5.39	6.20	COc1ccc(C2CC(c3cccc(C)c3)=NN2c2ccc(S(N)(=O)=O)cc2)cc1 (stereo not drawn)
inactive	–	–	CCc1ccc(C2=NN(c3ccc(S(N)(=O)=O)cc3)C(c3ccc(F)cc3)C2)cc1 (stereo not drawn)
> 30 µM (inactive)	–	–	CN(C)c1ccc(C2CC(c3ccc(F)cc3)=NN2c2ccccc2)cc1 (stereo not drawn)
> 30 µM (inactive)	–	–	COc1ccc(C2CC(c3ccccc3)=NN2c2ccc(Cl)c(C(=O)O)c2)cc1OC (stereo not drawn)
–	5.30	6.11	Cc1ccc(C2CC(c3ccccc3)=NN2c2ccc(S(N)(=O)=O)cc2)cc1 (stereo not drawn)
> 30 µM (inactive)	–	–	Brc1ccc(N2N=C(c3ccccc3)CC2c2ccccc2)cc1 (stereo not drawn)
> 30 µM (inactive)	–	–	O=[N+]([O-])c1ccc(N2N=C(c3ccccc3)CC2c2ccccc2)cc1 (stereo not drawn)
–	5.44	6.25	NS(=O)(=O)c1ccc(N2N=C(c3ccccc3)CC2c2ccc(Cl)cc2)cc1 (stereo not drawn)
–	5.13	5.94	NS(=O)(=O)c1ccc(N2N=C(c3ccccc3)CC2c2ccccc2Cl)cc1 (stereo not drawn)
